# Experimental data reported in patent US20070098735A1, “Methods for the Elimination of Pathogens and Other Particulate Agents” (priority 2005, published 2007).
# Tested on: CD4+ T cells purified from spleens of DO 11.10 mice (IFN-γ)
# Test: IFN-γ release by CD4+ T cells (ELISA)
# Assay type: cell-based
# Conditions: compared to ova-coated yeast alone or HSP70 given alone
# Protocol: Proliferation of CD4+ T cells and INF-γ (interferon gamma) release. Unlabeled S. cerevisiae (80 μg) was incubated with excess chicken ovary albumin (OVA) at 37° C. for 1 hour and washed repeatedly to eliminate free OVA protein. S. cerevisiae-OVA complexes (OVA-coated yeast) were administered to macrophages treated with or without HSP70. Macrophages were then washed and irradiated at 12,000 rads and assessed for viability by trypan blue exclusion. Subsequently, they were co-cultured with CD4+ T lymphocytes that were purified from spleens of DO 11.10 mice and labeled with carboxyfluoroscein succinimidyl ester (CSFE). […] Following the 48-hour incubation, proliferation of CD4+ cells was determined with FACS and IFN-γ release in the supernatant was tested by enzyme-linked immunosorbent assay (ELISA; Pierce, Ill.).
# Alexafluor labeled S. cerevisiae were coated with whole ovalbumin (OVA) protein 1 mg/ml by co-incubation at 37° C. for 20 minutes and washed until free OVA protein was removed (washes were tested by gel electrophoresis using SDS-PAGE and immunoblotting). […] Resultant proliferation of the CSFE-labeled CD4+ was measured by FACS as an indirect measure of the amount of OVA protein processed and its peptide epitope presented in context of MHC-II. […]
substance,measurement,value
"HSP70: heat shock protein purified from murine livers, prepared as a complex with endogenous peptide",IFN-γ production by CD4+ cells,increase in their ability to produce IFN-γ
